Measurements: patent publication US20260224465A1, “COMPOSITIONS COMPRISING A RETINOID AND A PROCESSED OAT INGREDIENT” (Kenvue Brands LLC, priority 2023, published 2026)

Legend:
Format in all cases: cell-based
[1] = tested on: CRABP2; assay: CRABP2 gene expression (qPCR) in primary human dermal fibroblasts; details: 30 hours of treatment, normalized against POLR2A, concentration given by sample
Experimental: (§1) CRAPB2, IL8 and HAS2 were evaluated in several samples containing fermented oat, retinol, and combinations of the two in varying amounts. Retinol (BASF, 50C) was prepared by dissolving Retinol in Dimethyl Sulfoxide (DMSO) for a concentration of 20% Retinol. Retinol was then further diluted in DMEM with GlutaMAX media supplemented with 1% FBS and 1X Penn/Strep for a stock concentration of (1.1×10^−4) % and (1.1×10^−5) % Retinol. […] Fermented Oat (aurafirm P, Oat Cosmetics, Hampshire, United Kingdom; INCI Aqua, Avena sativa (Oat) Kernel Extract, Lactobacillus Ferment, Sodium Benzoate, Potassium Sorbate) was diluted in media to provide 0.2% and 1.0% Fermented Oat solutions. Primary human dermal fibroblasts were acquired from Lifeline Cell Technology, LLC (Frederick, MD 21701; lot 0967). The donor demographics were as follows: person, fibroblasts isolated from breast. Fibroblasts were cultured and expanded using Dermal Fibroblast Culture Medium (Zenbio, Inc, Durham, NC 27713). […] The cDNA was evaluated by qPCR (using the QuantStudio™ 7 Flex Real-Time PCR System from Applied Biosystems, Waltham, MA). […] The fold changes were calculated in comparison to the untreated control and two-tailed two-sample Student t-tests (Microsoft Office Excel 2007; Microsoft, Redmond, WA, USA) were performed. […]

[2] = tested on: IL8; assay: IL8 gene expression (qPCR) in primary human dermal fibroblasts; details: 30 hours of treatment, normalized against POLR2A, concentration given by sample
Experimental: as §1

[3] = tested on: HAS2; assay: HAS2 gene expression (qPCR) in primary human dermal fibroblasts; details: 30 hours of treatment, normalized against POLR2A, concentration given by sample
Experimental: as §1

[4] = tested on: CRABP2; assay: CRABP2 gene expression (qPCR) in human skin explants; details: human abdominal skin explants, topical 4 μL in PgETOH, 48 hours
Experimental: (§2) Propylene glycol/ethanol (PgETOH) (3:7) (w/w) was used as a vehicle. 1% Colloidal oat (Avena Sativa Kernel Flour, Oat Cosmetics, Southampton, United Kingdom) and 0.1% Retinol solutions were each prepared in PgETOH as shown in Tables 4-7. Combinations were prepared by adding the appropriate amount of test solutions to arrive at the final concentrations as shown. Abdominal skin samples were obtained from human adults undergoing abdominoplasty surgery. Informed consent was obtained from each patient, and all experimental steps were approved by an institutional review board (IRB). Subcutaneous fat was carefully removed and skin biopsies of 0.93 cm^2 were prepared under sterile conditions and acclimated in DMEM/F12 (1:1) medium, 2% heat-inactivated fetal bovine serum, 10 μg/mL insulin, 10 ng/mL hydrocortisone, 10 ng/mL EGF, 1x ABAM under a 5% CO2 humidified atmosphere overnight. Skin explants were treated topically with 4 μL of each formulation for 48 hours. […] The fold changes were calculated in comparison to the untreated or vehicle controls and two-tailed two-sample Student t-tests (Microsoft Office Excel 2007; Microsoft, Redmond, WA, USA) were performed. Synergies were calculated as described above. […]

[5] = tested on: HAS3; assay: HAS3 gene expression (qPCR) in human skin explants; details: human abdominal skin explants, topical 4 μL in PgETOH, 48 hours
Experimental: as §2

[6] = tested on: HBEGF; assay: HBEGF gene expression (qPCR) in human skin explants; details: human abdominal skin explants, topical 4 μL in PgETOH, 48 hours
Experimental: as §2

[7] = tested on: IL8; assay: IL8 gene expression (qPCR) in human skin explants; details: human abdominal skin explants, topical 4 μL in PgETOH, 48 hours
Experimental: Propylene glycol/ethanol (PgETOH) (3:7) (w/w) was used as a vehicle. 1% Colloidal oat (Avena Sativa Kernel Flour, Oat Cosmetics, Southampton, United Kingdom) and 0.1% Retinol solutions were each prepared in PgETOH as shown in Tables 4-7. Combinations were prepared by adding the appropriate amount of test solutions to arrive at the final concentrations as shown.
Abdominal skin samples were obtained from human adults undergoing abdominoplasty surgery. Informed consent was obtained from each patient, and all experimental steps were approved by an institutional review board (IRB). Subcutaneous fat was carefully removed and skin biopsies of 0.93 cm^2 were prepared under sterile conditions and acclimated in DMEM/F12 (1:1) medium, 2% heat-inactivated fetal bovine serum, 10 μg/mL insulin, 10 ng/mL hydrocortisone, 10 ng/mL EGF, 1x ABAM under a 5% CO2 humidified atmosphere overnight. Skin explants were treated topically with 4 μL of each formulation for 48 hours. […]
Reverse transcription (RT) was performed using the Applied Biosystems High Capacity Reverse Transcription Kit (ThermoFisher Scientific, Bridgewater, NJ). […] The fold changes were calculated in comparison to the untreated or vehicle controls and two-tailed two-sample Student t-tests (Microsoft Office Excel 2007; Microsoft, Redmond, WA, USA) were performed. Synergies were calculated as described above. […]

Structure (SMILES)	CRABP2 Average Fold Change over untreated [1]	IL8 Average Fold Change over untreated [2]	HAS2 Average Fold Change over untreated [3]	CRABP2 Average Fold Change over untreated [4]	HAS3 Average Fold Change over untreated [5]	HBEGF Average Fold Change over untreated [6]	IL8 Average Fold Change over untreated [7]
CC1=C(/C=C/C(C)=C/C=C/C(C)=C/CO)C(C)(C)CCC1 [Sample 1-3, Retinol]	4.25 fold	18.83 fold	0.50 fold	–	–	–	–
CC1=C(/C=C/C(C)=C/C=C/C(C)=C/CO)C(C)(C)CCC1 [Sample 1-2, Retinol]	1.44 fold	2.05 fold	0.79 fold	–	–	–	–
CC1=C(/C=C/C(C)=C/C=C/C(C)=C/CO)C(C)(C)CCC1 [Sample 2-3, Retinol]	–	–	–	3.95 fold	3.05 fold	3.50 fold	2.30 fold
